Reference: patent US20230278958A1 (Merck Patent GmbH, priority 2020, published 2023)

Columns and labels:
SW620 Yap KO cells = test: Viability assay in SW620 Yap KO (Yap independent) cells, CyQUANT; format: cell-based; settings: Homo sapiens, SW-620, SW620 YAP/TAZ knock-out (YAP independent) cells, 96 hour incubation
Procedure: The ability of YAP-TEAD inhibitors to inhibit tumor cell growth was evaluated using two different cell lines: NCI-H226, which is a YAP dependent cell line, and SW620 cells, where YAP and TAZ were knocked out using CRISPR to generate a YAP independent cell line.
For the assay, cells were treated in duplicates with the test compounds in a 10-point dose, 1:3 dilution steps, with the top concentration starting at 30 μM (final concentration in assay). After a 96 hour incubation at 37° C., 95% rH, and 5% CO2, a cell-permeant DNA-binding dye that stains only healthy cells (CyQUANT®, Promega) was added to the cells, allowing the quantification of cell viability.
Cell Media: The NCI-H226 cells were cultured in the following media: RPMI 1640, +10% FBS, +1× GlutaMAX, +10 mM HEPES, +0.5% Pen/Strep. The SW620-KO cells were cultured in the following media: DMEM/F-12, +10% FBS, +1× GlutaMAX, +10 mM HEPES, +0.5% Pen/Strep.
Reagents: The reagents used are listed below:
Cell culture: The cells were examined using an inverted microscope to check for health, cell density, etc. To dissociate adherent cells, the monolayer of cells was washed once with pre-warmed PBS. After removing the PBS, 3 ml pre-warmed Accutase was added to a F75 flask, dispersed evenly and the flask was allowed to sit in incubator for ˜4-5 minutes.
When a single cell suspension was obtained, 7 ml of prewarmed growth media was added and resuspended with the cells. The cell suspension was transferred to a sterile 15 ml conical centrifuge tube, and spun for 5 min at 300×g, RT. The supernatant was discarded and the pellet was resuspended in 10 ml of pre-warmed growth media.
The total cell count was determined, and 20 μl of the desired cell number was added to each well of a 384 well plate using a Multidrop Combi. The plates were then incubated for 24 hours at 37° C., 95% rH, and 5% CO2.
Compound treatment: 24 hours after seeding, the cells were treated with compounds.
A 1:333 dilution of compounds, diluted in DMSO, was made to get a final concentration of 0.3% DMSO per well. To transfer the compounds to the assay plate, 120 nl was shot from Labcyte low dead volume plates to the cell plates containing 20 μl media/well with the ECHO 555 liquid handling system.
After treatment, the cells were fed with 20 μl fresh pre-warmed assay media using a Multidrop combi.
The assay plates were then incubated for 96 h at 37° C., 95% rH, and 5% CO2.
96h after treatment 30 μl of CyQuant® reagent was added to the assay plates using a Multidrop combi in the dark. The plates were then incubated for 1 hour at 37° C., 95% rH and 5% CO2. Thereafter, the assay plates were removed from the incubator and allowed to equilibrate to RT for 30 min in the dark without lid. Finally, they were measured using an EnVision microplate reader with a FITC bottom read program.
Experimental data in the Viability assay of the compounds shown in Table 1 are shown in Table 3 below and classified in the following groups: […]

NCI-H226 cells = test: Viability assay in NCI-H226 (Yap-dependent) cells, CyQUANT; format: cell-based; settings: Homo sapiens, 96 hour incubation
YAP-TEAD interaction = test: SK-HEP-1 reporter assay (8x TEAD responsive elements driving NanoLuc luciferase); format: cell-based; settings: Homo sapiens, SK-HEP1; SK-HEP-1 TEAD-NanoLuc reporter cells, 24 hour incubation, luciferase readout
Outline: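 SK-HEP-1 cells carrying stable 8× TEAD-element NanoLuc reporter, treated in duplicate with 10-point doses (top 30 μM final, 0.3% DMSO) for 24 h at 37 °C. Luciferase activity read by NanoGlo luminescence; IC50 values derived.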

melting point [°C]	IC50 (SW620 Yap KO cells) [µM]	IC50 (NCI-H226 cells) [µM]	IC50 (YAP-TEAD interaction) [nM]	Compound
134 to 136	> 10	0.001 to 0.1	10 to 100	CNC(=O)c1ccc2c(c1)c1nc(C)ccc1n2-c1ccc(C(F)(F)F)cc1 [Compound 22, N,2-dimethyl-5-[4-(trifluoromethyl)phenyl]-5H-pyrido[3,2-b]indole-8-carboxamide]
180 to 182	> 10	0.001 to 0.1	10 to 100	CNC(=O)c1ccc2c(c1)c1nc(OC)ccc1n2-c1ccc(C(F)(F)F)cc1 [Compound 27, 2-methoxy-N-methyl-5-[4-(trifluoromethyl)phenyl]-5H-pyrido[3,2-b]indole-8-carboxamide]
141 to 142	1 to 10	0.1 to 1	10 to 100	CNC(=O)c1ccc2c(c1)c1cc(C(C)C)ccc1n2-c1ccc(C(F)(F)F)cc1 [Compound 28, N-methyl-6-(propan-2-yl)-9-[4-(trifluoromethyl)phenyl]-9H-carbazole-3-carboxamide]
